The NIST ThermoML archive (doi:10.1021/je901020a)
“And” between values parts separate entries of the source, which are not always exact repeats. Equal values may be shown once.

What was measured:
[1] = 101 kPa, Liquid; for speed of sound: Pulse-echo method
[2] = refractive index (Na D-line) (dimensionless); conditions: 101.33 kPa, Liquid, Standard Abbe refractometry
[3] = xn = mol fraction of the nth substance listed; conditions: 101 kPa, Liquid; for speed of sound: Pulse-echo method
[4] = refractive index (Na D-line) (dimensionless); xn = mol fraction of the nth substance listed; conditions: 101 kPa, Liquid, Standard Abbe refractometry

C1CCCCCCC1 [cyclooctane]
Conditions	mass density, [1] [kg/m3]	refractive index, [2]	speed of sound, [1]
298.15 K	831.5	1.45598	1391 m/s
313.15 K	819.2	1.44877	1326 m/s and 1325 m/s

CC1CCCCC1 [methylcyclohexane]
Conditions	mass density, [1]	refractive index, [2]	speed of sound, [1] [m/s]
298.15 K	765 kg/m3 and 765.1 kg/m3	1.42062	1215
313.15 K	751.9 kg/m3	1.41274 and 1.41274	1150

C1CCCC1 [cyclopentane]
Conditions	mass density, [1] [kg/m3]	refractive index, [2]	speed of sound, [1] [m/s]
298.15 K	740	1.40292	1204
313.15 K	725	1.39456	1130

Cc1cc(C)cc(C)c1 [1,3,5-trimethylbenzene]
Conditions	mass density, [1] [kg/m3]	refractive index, [2]	speed of sound, [1] [m/s]
298.15 K	861.1	1.49693	1336
313.15 K	848.8	1.48923	1277

Cc1ccccc1C [1,2-dimethylbenzene]
Conditions	mass density, [1] [kg/m3]	refractive index, [2]	speed of sound, [1]
298.15 K	875.4	1.50262	1350 m/s
313.15 K	862.9	1.49466	1290 m/s and 1289 m/s

C1CCCCC1 [cyclohexane]
Conditions	mass density, [1]	refractive index, [2]	speed of sound, [1] [m/s]
298.15 K	773.9 kg/m3	1.4236	1255
313.15 K	759.6 kg/m3 and 759.59 kg/m3	1.41516	1182

Cc1cccc(C)c1 [1,3-dimethylbenzene] + C1CCCCC1
Conditions	mass density, [3] [kg/m3]	refractive index, [4]	speed of sound, [3] [m/s]
298.15 K, x2 = 0	859.8	1.49466	1321
298.15 K, x2 = 0.0346	856.9	1.49219	1317
298.15 K, x2 = 0.096	851.4	1.48781	1310
298.15 K, x2 = 0.1974	842.2	1.48052	1300
298.15 K, x2 = 0.2879	834.1	1.47391	1291
298.15 K, x2 = 0.3982	824.1	1.46589	1281
298.15 K, x2 = 0.5005	815	1.45851	1273
298.15 K, x2 = 0.6019	806.2	1.45128	1267
298.15 K, x2 = 0.6976	797.9	1.44447	1261
298.15 K, x2 = 0.7985	789.4	1.43723	1257
298.15 K, x2 = 0.9021	781.1	1.42992	1254
298.15 K, x2 = 0.9509	777.4	1.42673	1254
313.15 K, x2 = 0	846.9	1.48653	1259
313.15 K, x2 = 0.0355	843.7	1.48408	1255
313.15 K, x2 = 0.095	838.3	1.47988	1248
313.15 K, x2 = 0.1903	829.6	1.47305	1238
313.15 K, x2 = 0.2937	820.2	1.46566	1227
313.15 K, x2 = 0.3969	810.8	1.45826	1217
313.15 K, x2 = 0.4919	802.3	1.45153	1209
313.15 K, x2 = 0.5952	793.1	1.44402	1200
313.15 K, x2 = 0.6963	784.3	1.43677	1193
313.15 K, x2 = 0.7968	775.5	1.42954	1187
313.15 K, x2 = 0.8984	767.3	1.42246	1183
313.15 K, x2 = 0.9496	763.45	1.41885	1182

Cc1cccc(C)c1 [1,3-dimethylbenzene] + C1CCCCCCC1
x2 = 0
Conditions	mass density, [3] [kg/m3]	refractive index, [4]	speed of sound, [3] [m/s]
298.15 K	859.8	1.49466	1321
313.15 K	846.9	1.48653	1259

Cc1ccc(C)cc1 [1,4-dimethylbenzene]
Conditions	mass density, [1] [kg/m3]	refractive index, [2]	speed of sound, [1] [m/s]
298.15 K	856.6	1.49312	1310
313.15 K	843.5	1.48444	1248

Cc1cc(C)cc(C)c1 [1,3,5-trimethylbenzene] + C1CCCC1
x2 = 0
Conditions	mass density, [3] [kg/m3]	refractive index, [4]	speed of sound, [3] [m/s]
298.15 K	861.1	1.49693	1336
313.15 K	848.8	1.48923	1277

Cc1cccc(C)c1 [1,3-dimethylbenzene]
Conditions	mass density, [1] [kg/m3]	refractive index, [2]	speed of sound, [1] [m/s]
298.15 K	859.8	1.49466	1321
313.15 K	846.9	1.48653	1259

Cc1ccccc1C [1,2-dimethylbenzene] + C1CCCC1
x2 = 0
Conditions	mass density, [3] [kg/m3]	refractive index, [4]	speed of sound, [3] [m/s]
298.15 K	875.4	1.50262	1350
313.15 K	862.9	1.49466	1290
